Data from patent US9090631B2, “Process for purifying cefotiam hydrochloride” (HAINAN LINGKANG PHARMACEUTICAL CO., LTD., priority 2011, dated 2015).
Structures can show the parent of a compound that is named as a salt.

Assay: Solubility of cefotiam hydrochloride in recrystallization solvents
Type: physicochemical
Text: The solubility of cefotiam hydrochloride is great in water but very small in ethanol, and even smaller in acetone. A mixture of water and ethanol or a mixture of water and acetone is used as the solvent to recrystallize cefotiam hydrochloride.

CN(C)CCn1nnnc1SCC1=C(C(=O)O)N2C(=O)[C@@H](NC(=O)Cc3csc(N)n3)[C@H]2SC1 [cefotiam hydrochloride, (6R,7R)-7-[[(2-amino-4-thiazolyl)acetyl]amino]-3-[[1-[2-(dimethylamino)ethyl]-1H-tetrazol-5-yl]thiomethyl]-8-oxo-5-thia-1-azabicyclo[4,2,0]oct-2-ene-2-carboxylic acid dihydrochloride]
solubility (in ethanol): very small | solubility (in water): great
